IC50 data for 14 compounds are collected here from patent publication US8026257B2 (Bristol-Myers Squibb Company, priority 2007, dated 2011).

SMILES strings stand for the structures. pIC50: −log10 of the molar value.

In one experiment the target is T1, NK-1 (Homo sapiens, UniProt P25103).
T1 construct: 30 ul/well of a 2×U373 membrane preparation
Description: NK1 radioligand binding assay ([125I]Substance P, U373 membranes). To be noted: U373 cell membranes, 200 pM [125I]Substance P, 1 hour at room temperature. The essentials:
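Displacement of Kd-level [125I]Substance P (400 pM 2× stock) from U373 membranes in pH 7.5 Tris-Cl/MgCl2 buffer with protease inhibitors, 1 h, room temperature. Filtration onto GF/B, then scintillation counting. Percent inhibition, referenced to DMSO and L-733,060 wells, fitted by four-parameter equation to give IC50; triplicate plates.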

The next experiment deals with hSERT (Homo sapiens, UniProt P31645). Description: SERT radioligand binding assay ([125I]RTI-55, HEK-hSERT membranes). To be noted: HEK-293 hSERT membranes, 260 pM [125I]RTI-55, 1 hour at room temperature; read-out: SERT IC50. The essentials:
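IC50 values derive from four-parameter fits of triplicate percent-inhibition curves, with DMSO as 0% and fluoxetine as 100%. Binding used [125I]RTI-55 at its Kd (520 pM 2× solution) and HEK-hSERT membranes (15 ug/ml 2×) in Tris/NaCl/KCl, pH 7.5, 1 hour, room temperature. Filter-bound radioactivity was counted.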

Sequence of hSERT (P31645 whole entry): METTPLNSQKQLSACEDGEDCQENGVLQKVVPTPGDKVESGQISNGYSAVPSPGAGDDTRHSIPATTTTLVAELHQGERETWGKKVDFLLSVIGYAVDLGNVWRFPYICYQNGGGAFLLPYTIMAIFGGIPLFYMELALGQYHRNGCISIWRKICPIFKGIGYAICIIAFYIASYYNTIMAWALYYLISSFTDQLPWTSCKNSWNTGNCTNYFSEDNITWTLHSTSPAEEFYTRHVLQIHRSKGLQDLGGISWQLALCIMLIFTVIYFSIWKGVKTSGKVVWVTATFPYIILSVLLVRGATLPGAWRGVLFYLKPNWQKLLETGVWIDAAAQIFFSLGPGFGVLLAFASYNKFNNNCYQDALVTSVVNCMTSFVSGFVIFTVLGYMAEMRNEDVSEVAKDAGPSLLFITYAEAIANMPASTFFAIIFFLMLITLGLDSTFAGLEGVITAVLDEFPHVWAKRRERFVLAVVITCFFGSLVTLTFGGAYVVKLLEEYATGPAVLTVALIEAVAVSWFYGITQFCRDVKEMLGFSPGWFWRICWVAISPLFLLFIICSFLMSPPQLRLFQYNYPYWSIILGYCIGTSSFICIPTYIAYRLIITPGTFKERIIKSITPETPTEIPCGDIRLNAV
T1 sequence (P25103 whole entry): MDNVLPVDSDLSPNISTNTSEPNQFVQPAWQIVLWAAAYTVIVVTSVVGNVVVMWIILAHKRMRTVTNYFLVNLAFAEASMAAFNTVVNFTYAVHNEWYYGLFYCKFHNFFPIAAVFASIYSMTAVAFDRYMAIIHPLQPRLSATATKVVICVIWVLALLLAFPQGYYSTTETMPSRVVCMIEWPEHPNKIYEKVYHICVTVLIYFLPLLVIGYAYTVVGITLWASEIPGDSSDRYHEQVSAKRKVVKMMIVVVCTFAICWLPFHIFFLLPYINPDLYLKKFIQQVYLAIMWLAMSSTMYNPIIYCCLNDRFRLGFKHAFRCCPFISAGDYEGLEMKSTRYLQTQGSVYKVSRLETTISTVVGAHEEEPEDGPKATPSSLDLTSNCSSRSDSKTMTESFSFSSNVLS

Regarding `Cn1cc2cc(-c3ccc(C#N)cc3)cc(COCC3(c4ccccc4)CCNCC3)c2n1` [Example 5, 4-(2-Methyl-7-(((4-phenylpiperidin-4-yl)methoxy)methyl)-2H-indazol-5-yl)benzonitrile], the pIC50 on NK-1 is less than 6.52; at hSERT, 7.00 to 11.00.

With `Cc1cc(COCC2(c3ccccc3)CCNCC2)c2[nH]ncc2c1` [Example 6, 5-Methyl-7-(((4-phenylpiperidin-4-yl)methoxy)methyl)-1H-indazole], the pIC50 at NK-1 and at hSERT was 7.00 to 11.00 each time.

For `Cc1cc(COCC2(c3ccccc3)CCNCC2)c2c(cnn2C)c1` [Example 7, 1,5-Dimethyl-7-(((4-phenylpiperidin-4-yl)methoxy)methyl)-1H-indazole], the pIC50 on NK-1 and at hSERT was 7.00 to 11.00 in each case.

Regarding `Cc1cc(COCC2(c3ccccc3)CCNCC2)c2nn(C)cc2c1` [Example 8, 2,5-Dimethyl-7-(((4-phenylpiperidin-4-yl)methoxy)methyl)-2H-indazole], the pIC50 on NK-1 and on hSERT was 7.00 to 11.00 in each case.

For the compound `FC(F)(F)c1cc(COCC2(c3ccccc3)CCNCC2)c2[nH]ncc2c1` [Example 9, 7-(((4-Phenylpiperidin-4-yl)methoxy)methyl)-5-(trifluoromethyl)-1H-indazole], the pIC50 at NK-1 and at hSERT was 7.00 to 11.00 throughout.

Turning to `CN1CCC(COCc2cc(C(F)(F)F)cc3cn[nH]c23)(c2ccccc2)CC1` [Example 10, 7-(((1-Methyl-4-phenylpiperidin-4-yl)methoxy)methyl)-5-(trifluoromethyl)-1H-indazole], the pIC50 on NK-1 and on hSERT was 7.00 to 11.00 throughout.

On to `Cn1ncc2cc(C(F)(F)F)cc(COCC3(c4ccccc4)CCNCC3)c21` [Example 11, 1-Methyl-7-(((4-phenylpiperidin-4-yl)methoxy)methyl)-5-(trifluoromethyl)-1H-indazole], for which the pIC50 on NK-1 and at hSERT was 7.00 to 11.00 throughout.

Take `Cn1cc2cc(C(F)(F)F)cc(COCC3(c4ccccc4)CCNCC3)c2n1` [Example 12, 2-Methyl-7-(((4-phenylpiperidin-4-yl)methoxy)methyl)-5-(trifluoromethyl)-2H-indazole]: the pIC50 at NK-1 and at hSERT was 7.00 to 11.00 in each case.

Turning to `CN1CCC(COCc2cc(C(F)(F)F)cc3cnn(C)c23)(c2ccccc2)CC1` [Example 13, 1-Methyl-7-(((1-methyl-4-phenylpiperidin-4-yl)methoxy)methyl)-5-(trifluoromethyl)-1H-indazole], the negative logarithm of the IC50 (pIC50) at NK-1 and on hSERT was 7.00 to 11.00 throughout.

In the case of `CN1CCC(COCc2cc(C(F)(F)F)cc3cn(C)nc23)(c2ccccc2)CC1` [Example 14, 2-Methyl-7-(((1-methyl-4-phenylpiperidin-4-yl)methoxy)methyl)-5-(trifluoromethyl)-2H-indazole], the pIC50 on NK-1 and on hSERT was 7.00 to 11.00 each time.

On to `Fc1ccc(C2(COCc3cc(C(F)(F)F)cc4cn[nH]c34)CCNCC2)cc1` [Example 15, 7-(((4-(4-Fluorophenyl)piperidin-4-yl)methoxy)methyl)-5-(trifluoromethyl)-1H-indazole], for which the pIC50 at NK-1 and at hSERT was 7.00 to 11.00 in each case.

`CN1CCC(COCc2cc(C(F)(F)F)cc3cn[nH]c23)(c2ccc(F)cc2)CC1` [Example 16, 7-(((4-(4-Fluorophenyl)-1-methylpiperidin-4-yl)methoxy)methyl)-5-(trifluoromethyl)-1H-indazole]: the pIC50 on NK-1 and on hSERT was 7.00 to 11.00 throughout.

`Cn1ncc2cc(C(F)(F)F)cc(COCC3(c4ccc(F)cc4)CCNCC3)c21` [Example 17, 7-(((4-(4-Fluorophenyl)piperidin-4-yl)methoxy)methyl)-1-methyl-5-(trifluoromethyl)-1H-indazole]: the pIC50 on NK-1 and on hSERT was 7.00 to 11.00 throughout.

Turning to `Cn1cc2cc(C(F)(F)F)cc(COCC3(c4ccc(F)cc4)CCNCC3)c2n1` [Example 18, 7-(((4-(4-Fluorophenyl)piperidin-4-yl)methoxy)methyl)-2-methyl-5-(trifluoromethyl)-2H-indazole], the pIC50 on NK-1 and at hSERT was 7.00 to 11.00 throughout.

For orientation: pIC50 means −log10 of the IC50, conventionally taken in molar units.
